Experimental findings from ChEMBL document CHEMBL1125260, “Binding of substituted and conformationally restricted derivatives of N-(3-phenyl-n-propyl)-1-phenyl-2-aminopropane at sigma-receptors” (J Med Chem, 1991) are described below.

Each structure is given as a SMILES string. pIC50: −log10 of the molar value. A value given as a limit tells only on which side of the number the result lay.

Assay [1] concerns the target T1, Adrenergic receptor beta (Rattus norvegicus, UniProt P18090+P10608+P26255). Description: In vitro binding affinity at Beta adrenergic receptor in rat brain membrane using [3H]dihydroalprenolol as radioligand. Format: cell membranes.
The next assay addresses D(1A) dopamine receptor (Rattus norvegicus, UniProt P18901). Description: In vitro binding affinity at Dopamine receptor D1 using [3H]SCH-23390 as radioligand.
The next assay concerns the target D(2) dopamine receptor (Rattus norvegicus, UniProt P61169). Description: In vitro binding affinity at Dopamine receptor D2 in rat striata using [3H]domperidone as radioligand.
The target in assay [2] is T2, Glutamate receptor ionotropic, AMPA (Rattus norvegicus, UniProt P19490+P19491+P19492+P19493). Description: In vitro binding affinity at quisqualate binding site of quisqualate/AMPA glutamate receptors in rat brain membrane using [3H]- ]AMPA as radioligand. Format: cell membranes.
Assay [3] has as its target Glutamate receptor ionotropic, kainate. Description: In vitro binding affinity at Ionotropic glutamate receptor kainate in rat brain membrane using [3H]kainate as radioligand. Format: cell membranes.
Assay [4] has as its target Muscarinic acetylcholine receptor. Description: In vitro binding affinity at Muscarinic acetylcholine receptor in rat brain membrane using [3H]QNB as radioligand. It is filed as cell membranes.
Assay [5] has as its target T1, Adrenergic receptor beta. Description: In vitro binding affinity at beta adrenergic receptor binding site receptors in rat brain membrane using [3H]dihydroalprenolol as radioligand. It is filed as cell membranes.
The target of assay [6] is Glutamate receptor ionotropic, kainate. Description: In vitro binding affinity at Ionotropic glutamate receptor ionotropic kainate in rat brain membrane using [3H]kainate as radioligand. Format: cell membranes.
The target in assay [7] is Muscarinic acetylcholine receptor. Description: In vitro binding affinity at muscarinic binding site receptors in rat brain membrane using [3H]QNB as radioligand. Format: cell membranes.
The target in assay [8] is T2, Glutamate receptor ionotropic, AMPA. Description: In vitro binding affinity at quisqualate binding site of quisqualate/AMPA glutamate receptors in rat brain membrane using [3H]AMPA as radioligand. Format: cell membranes.

Sequence of D(2) dopamine receptor (P61169 whole entry): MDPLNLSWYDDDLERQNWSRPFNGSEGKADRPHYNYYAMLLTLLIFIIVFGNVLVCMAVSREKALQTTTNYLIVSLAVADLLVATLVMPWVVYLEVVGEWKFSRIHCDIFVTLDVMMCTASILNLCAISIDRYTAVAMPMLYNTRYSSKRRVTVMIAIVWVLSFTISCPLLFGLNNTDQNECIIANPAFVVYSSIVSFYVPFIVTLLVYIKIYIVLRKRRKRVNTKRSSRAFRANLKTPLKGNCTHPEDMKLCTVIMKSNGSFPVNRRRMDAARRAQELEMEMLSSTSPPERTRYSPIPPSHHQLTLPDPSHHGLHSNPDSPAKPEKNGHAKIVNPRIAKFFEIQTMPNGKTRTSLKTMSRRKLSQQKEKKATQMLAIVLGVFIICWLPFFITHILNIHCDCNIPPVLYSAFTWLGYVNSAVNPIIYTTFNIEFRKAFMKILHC
Sequence of D(1A) dopamine receptor (P18901 whole entry): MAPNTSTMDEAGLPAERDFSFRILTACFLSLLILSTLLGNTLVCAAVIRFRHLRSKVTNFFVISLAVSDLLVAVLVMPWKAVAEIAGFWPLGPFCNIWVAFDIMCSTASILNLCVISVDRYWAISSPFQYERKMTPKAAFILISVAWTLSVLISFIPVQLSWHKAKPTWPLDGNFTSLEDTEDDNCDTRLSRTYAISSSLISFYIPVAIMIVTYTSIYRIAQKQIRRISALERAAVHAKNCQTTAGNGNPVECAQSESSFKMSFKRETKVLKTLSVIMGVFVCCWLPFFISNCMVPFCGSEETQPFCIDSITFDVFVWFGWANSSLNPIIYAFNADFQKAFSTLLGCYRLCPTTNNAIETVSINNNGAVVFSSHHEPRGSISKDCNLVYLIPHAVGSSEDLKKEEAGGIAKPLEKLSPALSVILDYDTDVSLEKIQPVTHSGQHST

The term IC50 denotes the midpoint of a concentration-inhibition curve. A high value points to a need for much substance. Broadly, the pIC50 is −log10 of the IC50, conventionally taken in molar units. A higher pIC50 goes with a small IC50. As for `CC(Cc1ccc(Cl)c(Cl)c1)NCCCc1ccccc1` (centres undefined), the IC50 on Adrenergic receptor beta [1] is 1.24 µM; in [4] it was 7.4 µM. Besides, the pIC50 at D(1A) dopamine receptor was less than 5.00; on D(2) dopamine receptor, 5.75; in assay [2], less than 5.00; in assay [3], less than 5.00.
Turning to `c1ccc(CCCNC2CCc3ccccc3CC2)cc1`, the IC50 at Adrenergic receptor beta [1] is greater than 10 µM; in assay [4], 9.5 µM. The negative-log IC50 (pIC50) on D(1A) dopamine receptor is less than 5.00; at D(2) dopamine receptor, 5.24; in assay [2], less than 5.00; in assay [3] it was less than 5.00.
With `CC(Cc1ccc(I)cc1)NCCCc1ccccc1` (centres undefined), the concentration for half-maximal inhibition (IC50) at Adrenergic receptor beta [5] is 5.57 µM; in assay [7], greater than 10 µM. In addition, the pIC50 at D(1A) dopamine receptor is less than 5.00; on D(2) dopamine receptor, 5.42; in assay [2], less than 5.00; in assay [6] it was less than 5.00.
`COc1ccc(CC(C)NCCCc2ccccc2)cc1` (centres undefined): the IC50 on Adrenergic receptor beta [5] is 4.94 µM; in [7], greater than 10 µM. Besides, the pIC50 is less than 5.00 at D(1A) dopamine receptor, 5.03 at D(2) dopamine receptor, less than 5.00 in assay [8] and less than 5.00 in assay [6].
